Reference: ChEMBL document CHEMBL1143419, “Safety and pharmacokinetics of Bevirimat (PA-457), a novel inhibitor of human immunodeficiency virus maturation, in healthy volunteers” (Antimicrob Agents Chemother, 2007)

Columns and labels:
Homo sapiens [1] = assay: Dose normalized AUC (0 to infinity) in healthy human plasma at 25 mg, po administered as single dose; type: ADME, organism-based; set-up: dose 25 mg, time infinity, route oral; details: in vivo
[2] = AUC (0 to infinity) in healthy human plasma at 25 mg, po administered as single dose; type: ADME, organism-based; set-up: dose 25 mg, time infinity, route oral
Homo sapiens [3] = assay: Cmax in healthy human plasma after 25 mg oral dose, normalised for 70 kg subject; type: ADME, organism-based; set-up: dose 25 mg, route oral; details: in vivo
[4] = Cmax in healthy human plasma at 25 mg, po administered as single dose; type: ADME, organism-based; set-up: dose 25 mg, route oral
[5] = Tmax in healthy human plasma at 25 mg, po administered as single dose; type: ADME, organism-based
[6] = Half life in healthy human plasma at 25 mg, po administered as single dose; type: ADME, organism-based
[7] = Apparent oral clearance in healthy human plasma at 25 mg, po administered as single dose; type: ADME, organism-based
[8] = AUC (0 to infinity) in healthy human plasma at 50 mg, po administered as single dose; type: ADME, organism-based; set-up: dose 50 mg, route oral, time infinity
Homo sapiens [9] = assay: Dose normalized AUC (0 to infinity) in healthy human plasma at 50 mg, po administered as single dose; type: ADME, organism-based; set-up: dose 50 mg, time infinity, route oral; details: in vivo
[10] = Cmax in healthy human plasma at 50 mg, po administered as single dose; type: ADME, organism-based; set-up: dose 50 mg, route oral
Homo sapiens [11] = assay: Cmax in healthy human plasma after 50 mg oral dose, normalised for 70 kg subject; type: ADME, organism-based; set-up: dose 50 mg, route oral; details: in vivo
[12] = Tmax in healthy human plasma at 50 mg, po administered as single dose; type: ADME, organism-based
[13] = Half life in healthy human plasma at 50 mg, po administered as single dose; type: ADME, organism-based
[14] = Apparent oral clearance in healthy human plasma at 50 mg, po administered as single dose; type: ADME, organism-based
Homo sapiens [15] = assay: Toxicity in healthy human assessed as adverse event occurrence at 25 mg, po administered as single dose; type: organism-based; details: in vivo
Homo sapiens [16] = assay: Toxicity in healthy human assessed as adverse event occurrence at 50 mg, po administered as single dose; type: organism-based; details: in vivo
Homo sapiens [17] = assay: Toxicity in healthy human assessed as adverse event occurrence at 100 mg, po administered as single dose; type: organism-based; details: in vivo
Homo sapiens [18] = assay: Toxicity in healthy human assessed as adverse event occurrence at 250 mg, po administered as single dose; type: organism-based; details: in vivo
[19] = AUC (0 to infinity) in healthy human plasma at 100 mg, po administered as single dose; type: ADME, organism-based; set-up: dose 100 mg, route oral, time infinity
Homo sapiens [20] = assay: Dose normalized AUC (0 to infinity) in healthy human plasma at 100 mg, po administered as single dose; type: ADME, organism-based; set-up: dose 100 mg, time infinity, route oral; details: in vivo
Homo sapiens [21] = assay: Cmax in heathy human plasma after 100 mg oral dose, normalised for 70 kg subject; type: ADME, organism-based; set-up: dose 100 mg, route oral; details: in vivo
[22] = Tmax in healthy human plasma at 100 mg, po administered as single dose; type: ADME, organism-based
[23] = Half life in healthy human plasma at 100 mg, po administered as single dose; type: ADME, organism-based
[24] = Apparent oral clearance in healthy human plasma at 100 mg, po administered as single dose; type: ADME, organism-based
[25] = AUC (0 to infinity) in healthy human plasma at 250 mg, po administered as single dose; type: ADME, organism-based; set-up: dose 250 mg, time infinity, route oral
Homo sapiens [26] = assay: Dose normalized AUC (0 to infinity) in healthy human plasma at 250 mg, po administered as single dose; type: ADME, organism-based; set-up: dose 250 mg, route oral, time infinity; details: in vivo
[27] = Cmax in healthy human plasma at 250 mg, po administered as single dose; type: ADME, organism-based; set-up: dose 250 mg, route oral
Homo sapiens [28] = assay: Cmax in healthy human plasma after 250 mg oral dose, normalised for 70 kg subject; type: ADME, organism-based; set-up: dose 250 mg, route oral; details: in vivo
[29] = Tmax in healthy human plasma at 250 mg, po administered as single dose; type: ADME, organism-based
[30] = Half life in healthy human plasma at 250 mg, po administered as single dose; type: ADME, organism-based
[31] = Apparent oral clearance in healthy human plasma at 250 mg, po administered as single dose; type: ADME, organism-based
[32] = Drug concentration in healthy human urine assessed as unconjugated drug level at 250 mg, po administered as single dose after 48 hrs; type: ADME, organism-based; details: read-out: Drug uptake
[33] = Drug concentration in healthy human urine assessed as conjugated drug level at 250 mg, po administered as single dose after 48 hrs; type: ADME, organism-based; details: in vivo

## C=C(C)[C@@H]1CC[C@]2(C(=O)O)CC[C@]3(C)[C@H](CC[C@@H]4[C@@]5(C)CC[C@H](OC(=O)CC(C)(C)C(=O)O)C(C)(C)[C@@H]5CC[C@]43C)[C@@H]12 [BEVIRIMAT]
Homo sapiens [1]
  AUC: 170.2 µg·h/mL
[2]
  AUC(0-inf): 151 µg·h/mL
Homo sapiens [3]
  Cmax: 2800 ng/mL
[4]
  Cmax: 2240 ng/mL
[5]
  Tmax: 1.75 h
[6]
  half-life: 55.8 h
[7]
  CL/F: 2.89 mL/h/kg
[8]
  AUC(0-inf): 312 µg·h/mL
Homo sapiens [9]
  AUC: 362.1 µg·h/mL
[10]
  Cmax: 6060 ng/mL
Homo sapiens [11]
  Cmax: 7300 ng/mL
[12]
  Tmax: 1 h
[13]
  half-life: 56.7 h
[14]
  CL/F: 2.76 mL/h/kg
Homo sapiens [15]
  Activity: 16.7%
Homo sapiens [16]
  Activity: 16.7%
Homo sapiens [17]
  Activity: 50%
Homo sapiens [18]
  Activity: 33.3%
[19]
  AUC(0-inf): 983 µg·h/mL
Homo sapiens [20]
  AUC: 1014 µg·h/mL
Homo sapiens [21]
  Cmax: 14900 ng/mL
[22]
  Tmax: 2 h
[23]
  half-life: 75.4 h
[24]
  CL/F: 1.75 mL/h/kg
[25]
  AUC(0-inf): 1800 µg·h/mL
Homo sapiens [26]
  AUC: 2221.8 µg·h/mL
[27]
  Cmax: 30000 ng/mL
Homo sapiens [28]
  Cmax: 31100 ng/mL
[29]
  Tmax: 2.5 h
[30]
  half-life: 69 h
[31]
  CL/F: 2.43 mL/h/kg
[32]
  dose excreted at 48 h: 0.82%
[33]
  Drug uptake: 0.82 %ID
